Active and inactive are the calls of the source. No cut-off for these calls is given here.
system: Leishmania braziliensis; assay: Antiprotozoal activity against metacyclic promastigote stage of Leishmania braziliensis MHOM/PE/95/LQ2 assessed as growth inhibition after 72 hrs by Alamar Blue assay; assay type: functional, organism-based; conditions: not given

Compound | growth inhibition (GI)
Br.CN(C)CCCCCN1CC(=O)Nc2cc([N+](=O)[O-])ccc21 | inactive
Br.O=C1CN(CCCCCN2CCCC2)c2ccc([N+](=O)[O-])cc2N1 | inactive
Br.CN1C(=O)CN(CCCCCN2CCCC2)c2ccc([N+](=O)[O-])cc21 | Dose-dependent effect

same assay, conditions: MHOM/PE/95/LQ2, 72 h

Compound | IC50 [µg/mL]
Br.CN1C(=O)CN(CCCCCN2CCCC2)c2ccc([N+](=O)[O-])cc21 | 5.3

system: Trichomonas vaginalis; assay: Trichomonastatic activity against Trichomonas vaginalis JH31A at 1 ug/ml after 48 hrs by Neubauer chamber analysis relative to control; assay type: functional; conditions: not given

Compound | Activity [%]
Br.CN(C)CCCCCN1CC(=O)Nc2cc([N+](=O)[O-])ccc21 | 0
Br.O=C1CN(CCCCCN2CCCC2)c2ccc([N+](=O)[O-])cc2N1 | 0
Br.CN1C(=O)CN(CCCCCN2CCCC2)c2ccc([N+](=O)[O-])cc21 | 4.1

system: Trichomonas vaginalis; assay: Trichomonastatic activity against Trichomonas vaginalis JH31A at 1 ug/ml after 24 hrs by Neubauer chamber analysis relative to control; assay type: functional; conditions: not given

Compound | Activity [%]
Br.CN(C)CCCCCN1CC(=O)Nc2cc([N+](=O)[O-])ccc21 | 1.22
Br.O=C1CN(CCCCCN2CCCC2)c2ccc([N+](=O)[O-])cc2N1 | 3.53
Br.CN1C(=O)CN(CCCCCN2CCCC2)c2ccc([N+](=O)[O-])cc21 | 0

system: Trichomonas vaginalis; assay: Trichomonastatic activity against Trichomonas vaginalis JH31A at 100 ug/ml after 48 hrs by Neubauer chamber analysis relative to control; assay type: functional; conditions: not given

Compound | Activity [%]
Br.CN(C)CCCCCN1CC(=O)Nc2cc([N+](=O)[O-])ccc21 | 28.33
Br.O=C1CN(CCCCCN2CCCC2)c2ccc([N+](=O)[O-])cc2N1 | 34.26

system: Toxoplasma gondii; assay: Antiprotozoal activity against tachyzoite stage of Toxoplasma gondii RH assessed as viability at 200 uM after 4 hrs by trypan blue exclusion assay relative to control; assay type: functional; conditions: not given

Compound | Activity [%]
Br.CN(C)CCCCCN1CC(=O)Nc2cc([N+](=O)[O-])ccc21 | 96
Br.O=C1CN(CCCCCN2CCCC2)c2ccc([N+](=O)[O-])cc2N1 | 85
Br.CN1C(=O)CN(CCCCCN2CCCC2)c2ccc([N+](=O)[O-])cc21 | 84

system: Trichomonas vaginalis; assay: Trichomonastatic activity against Trichomonas vaginalis JH31A at 100 ug/ml after 24 hrs by Neubauer chamber analysis relative to control; assay type: functional; conditions: not given

Compound | Activity [%]
Br.CN(C)CCCCCN1CC(=O)Nc2cc([N+](=O)[O-])ccc21 | 29.39
Br.O=C1CN(CCCCCN2CCCC2)c2ccc([N+](=O)[O-])cc2N1 | 75.61

system: Toxoplasma gondii; assay: Antiprotozoal activity against tachyzoite stage of Toxoplasma gondii RH assessed as extrusion of cytoplasmic content by light microscopic analysis; assay type: functional, organism-based; conditions: not given

Compound | Activity
Br.O=C1CN(CCCCCN2CCCC2)c2ccc([N+](=O)[O-])cc2N1 | Active

system: Toxoplasma gondii; assay: Antiprotozoal activity against tachyzoite stage of Toxoplasma gondii RH assessed as viability at 500 uM after 4 hrs by trypan blue exclusion assay relative to control; assay type: functional; conditions: not given

Compound | Activity [%]
Br.CN(C)CCCCCN1CC(=O)Nc2cc([N+](=O)[O-])ccc21 | 93
Br.O=C1CN(CCCCCN2CCCC2)c2ccc([N+](=O)[O-])cc2N1 | 0
Br.CN1C(=O)CN(CCCCCN2CCCC2)c2ccc([N+](=O)[O-])cc21 | 58

system: J774; assay: Cytotoxicity against mouse J774 cells at 1 ug/mL after 24 hrs by MTT assay; assay type: cell-based; conditions: j774, 24 h

Compound | Activity [%]
Br.O=C1CN(CCCCCN2CCCC2)c2ccc([N+](=O)[O-])cc2N1 | 0
Br.CN1C(=O)CN(CCCCCN2CCCC2)c2ccc([N+](=O)[O-])cc21 | 0

system: J774; assay: Cytotoxicity against mouse J774 cells at 10 ug/mL after 24 hrs by MTT assay; assay type: cell-based; conditions: j774, 24 h

Compound | Activity [%]
Br.O=C1CN(CCCCCN2CCCC2)c2ccc([N+](=O)[O-])cc2N1 | 0
Br.CN1C(=O)CN(CCCCCN2CCCC2)c2ccc([N+](=O)[O-])cc21 | 0

system: Plasmodium falciparum; assay: Antimalarial activity against intraerythrocytic asexual stage of Plasmodium falciparum 3D7 assessed as inhibition of [G-3H]-hypoxanthine uptake by semiautomated microdilution method; assay type: functional, organism-based; conditions: not given

Compound | IC50 [µg/mL]
Br.CN(C)CCCCCN1CC(=O)Nc2cc([N+](=O)[O-])ccc21 | > 10
Br.O=C1CN(CCCCCN2CCCC2)c2ccc([N+](=O)[O-])cc2N1 | > 10
Br.CN1C(=O)CN(CCCCCN2CCCC2)c2ccc([N+](=O)[O-])cc21 | > 10

system: Trichomonas vaginalis; assay: Trichomonastatic activity against Trichomonas vaginalis JH31A at 10 ug/ml after 48 hrs by Neubauer chamber analysis relative to control; assay type: functional; conditions: not given

Compound | Activity [%]
Br.CN(C)CCCCCN1CC(=O)Nc2cc([N+](=O)[O-])ccc21 | 14.68
Br.O=C1CN(CCCCCN2CCCC2)c2ccc([N+](=O)[O-])cc2N1 | 1.64
Br.CN1C(=O)CN(CCCCCN2CCCC2)c2ccc([N+](=O)[O-])cc21 | 67.7

system: Acanthamoeba castellanii; assay: Antiprotozoal activity against trophozoite stage of Acanthamoeba castellanii Neff ATCC 30010 after 72 to 120 hrs by Alamar Blue assay; assay type: functional; conditions: Acanthamoeba castellanii str. Neff

Compound | Activity
Br.CN(C)CCCCCN1CC(=O)Nc2cc([N+](=O)[O-])ccc21 | inactive
Br.O=C1CN(CCCCCN2CCCC2)c2ccc([N+](=O)[O-])cc2N1 | inactive
Br.CN1C(=O)CN(CCCCCN2CCCC2)c2ccc([N+](=O)[O-])cc21 | inactive

system: not listed separately; assay: Inhibition of ferriprotoporphyrin-9 biocrystallization by micro-ELISA; conditions: not given

Compound | IC50 [µg/mL]
Br.CN(C)CCCCCN1CC(=O)Nc2cc([N+](=O)[O-])ccc21 | > 2000
Br.O=C1CN(CCCCCN2CCCC2)c2ccc([N+](=O)[O-])cc2N1 | > 2000
Br.CN1C(=O)CN(CCCCCN2CCCC2)c2ccc([N+](=O)[O-])cc21 | > 2000

system: Trypanosoma cruzi; assay: Trypanocidal activity against epimastigote stage of Trypanosoma cruzi CL Brener at 100 ug/mL after 72 hrs by beta-galactosidase reporter gene assay relative to control; assay type: functional; conditions: not given

Compound | Activity [%]
Br.O=C1CN(CCCCCN2CCCC2)c2ccc([N+](=O)[O-])cc2N1 | 83.54
Br.CN1C(=O)CN(CCCCCN2CCCC2)c2ccc([N+](=O)[O-])cc21 | 6.36

system: Trypanosoma cruzi; assay: Trypanocidal activity against epimastigote stage of Trypanosoma cruzi CL Brener at 10 ug/mL after 72 hrs by beta-galactosidase reporter gene assay relative to control; assay type: functional; conditions: not given

Compound | Activity [%]
Br.O=C1CN(CCCCCN2CCCC2)c2ccc([N+](=O)[O-])cc2N1 | 5.35
Br.CN1C(=O)CN(CCCCCN2CCCC2)c2ccc([N+](=O)[O-])cc21 | 2.51

system: Trichomonas vaginalis; assay: Trichomonacidal activity against Trichomonas vaginalis JH31A at 10 ug/ml after 24 hrs by Neubauer chamber analysis relative to control; assay type: functional; conditions: not given

Compound | Activity [%]
Br.CN1C(=O)CN(CCCCCN2CCCC2)c2ccc([N+](=O)[O-])cc21 | 89.25

system: Toxoplasma gondii; assay: Antiprotozoal activity against tachyzoite stage of Toxoplasma gondii RH assessed as viability at 100 uM after 4 hrs by trypan blue exclusion assay relative to control; assay type: functional; conditions: not given

Compound | Activity [%]
Br.CN(C)CCCCCN1CC(=O)Nc2cc([N+](=O)[O-])ccc21 | 95
Br.O=C1CN(CCCCCN2CCCC2)c2ccc([N+](=O)[O-])cc2N1 | 91
Br.CN1C(=O)CN(CCCCCN2CCCC2)c2ccc([N+](=O)[O-])cc21 | 89

system: Trichomonas vaginalis; assay: Trichomonastatic activity against Trichomonas vaginalis JH31A at 10 ug/ml after 24 hrs by Neubauer chamber analysis relative to control; assay type: functional; conditions: not given

Compound | Activity [%]
Br.CN(C)CCCCCN1CC(=O)Nc2cc([N+](=O)[O-])ccc21 | 11.43
Br.O=C1CN(CCCCCN2CCCC2)c2ccc([N+](=O)[O-])cc2N1 | 21.02

system: Trypanosoma cruzi; assay: Trypanocidal activity against epimastigote stage of Trypanosoma cruzi CL Brener at 1 ug/mL after 72 hrs by beta-galactosidase reporter gene assay relative to control; assay type: functional; conditions: not given

Compound | Activity [%]
Br.O=C1CN(CCCCCN2CCCC2)c2ccc([N+](=O)[O-])cc2N1 | 4.38
Br.CN1C(=O)CN(CCCCCN2CCCC2)c2ccc([N+](=O)[O-])cc21 | 0

system: Trichomonas vaginalis; assay: Trichomonacidal activity against Trichomonas vaginalis JH31A at 100 ug/ml after 24 hrs by Neubauer chamber analysis relative to control; assay type: functional; conditions: not given

Compound | Activity [%]
Br.CN1C(=O)CN(CCCCCN2CCCC2)c2ccc([N+](=O)[O-])cc21 | 100

system: Toxoplasma gondii; assay: Antiprotozoal activity against tachyzoite stage of Toxoplasma gondii RH assessed as viability at 1 mM after 4 hrs by trypan blue exclusion assay relative to control; assay type: functional; conditions: not given

Compound | Activity [%]
Br.CN(C)CCCCCN1CC(=O)Nc2cc([N+](=O)[O-])ccc21 | 73
Br.O=C1CN(CCCCCN2CCCC2)c2ccc([N+](=O)[O-])cc2N1 | 0
Br.CN1C(=O)CN(CCCCCN2CCCC2)c2ccc([N+](=O)[O-])cc21 | 38

system: J774; assay: Cytotoxicity against mouse J774 cells at 100 ug/mL after 24 hrs by MTT assay; assay type: cell-based; conditions: j774, 24 h

Compound | Activity [%]
Br.O=C1CN(CCCCCN2CCCC2)c2ccc([N+](=O)[O-])cc2N1 | 0
Br.CN1C(=O)CN(CCCCCN2CCCC2)c2ccc([N+](=O)[O-])cc21 | 49.25

system: Trichomonas vaginalis; assay: Trichomonacidal activity against Trichomonas vaginalis JH31A at 100 ug/ml after 48 hrs by Neubauer chamber analysis relative to control; assay type: functional; conditions: not given

Compound | Activity [%]
Br.CN1C(=O)CN(CCCCCN2CCCC2)c2ccc([N+](=O)[O-])cc21 | 100

— ChEMBL document CHEMBL3112492, “Antiprotozoan lead discovery by aligning dry and wet screening: prediction, synthesis, and biological assay of novel quinoxalinones” (Bioorg Med Chem, 2014)
